Columns and labels:
[1] = Measuring of viscosity of curable compound (cone plate type rotatory viscometer); format: physicochemical; conditions: cone rotor, 50 rpm
Experimental: Viscosity of the thus-obtained curable compound was measured by a cone plate type rotatory viscometer (VISCOMETER TVE-22L, manufactured by TOKI SANGYO CO., LTD.) using a cone rotor (1°34′×R24) at a number of rotation of 50 rpm and at 25 degrees C. of hemathermal circulating water.

[2] = test system: female rats of Slc: Wistar/ST series; test: Limiting test based on Acute Oral Toxicity Test (OECD TG423, Acute Toxic Class Method); format: in vivo, rat; conditions: single gavage dose 2,000 mg/kg weight of body, six animals per testing article, observed 14 days
From the text: The curable compounds of Example 1a, Example 4a, Comparative Example 1a, and Comparative Example 2a were subject to the limiting test based on Acute Oral Toxicity Test (OECD TG423) according to Acute Toxic Class Method in the following manner to evaluate safeness.
Regarding the curable compound of the present disclosure as test article, 24 female rats of Slc: Wistar/ST series of 5 week old as animal used were ordered for Japan SLC, Inc. The animals were habituated for one week. No abnormalities were found in all of the rats (animals used) during the habituation period.
Based on the body weights measured two days before the initiation of administration, they were categorized into four groups (six rats per group) by the body weight stratified random sampling method so that the body weight of each individual was within ±20% of the average body weight of all of the individuals. The individuals not classified into the groups were excluded from the test.
First group, Example 1a: Testing article: curable compound represented by the chemical structure a1-1, Amount of administration: 2,000 mg/kg weight of body, number of animals used: six
Second group, Example 4a: Testing article: curable compound represented by the chemical structure d1-1, Amount of administration: 2,000 mg/kg weight of body, number of animals used: six
Third group, Comparative Example 1a: Testing article: N,N-diethylacrylamide represented by the chemical structure (1), Amount of administration: 2,000 mg/kg weight of body, number of animals used: six
Fourth group, Comparative Example 2a: Testing article: Acrylamide represented by the chemical structure (2), Amount of administration: 2,000 mg/kg weight of body, number of animals used: six
100 mg of the testing article was weighed using a measuring flask and water was added as solvent to make 1 mL in total. […] The preparation liquid of the testing article was prepared on the day of administration.
The animals used were on fasting except for water for 17 hours before administration. The mass was measured after the fasting and the testing article was provided by gavage administration one time using a gastric tube. After the administration, no food was given for another three to four hours.
The administration was on one dose of 2,000 mg/kg weight of body and six animals were used per testing article.
Note that the observation was counted from the day of the initiation of administration being regarded as Day 1.
The number of animals who died during the test period was counted.

C=CC(=O)N(C)CC(=O)OCC [Example 5a]
Viscosity (25 degrees C., mPA · s) [1]: 11.4 mPA · s

C=CC(=O)N(C)C(C)C(=O)OC (stereo not shown) [Example 13a]
Viscosity (25 degrees C., mPA · s) [1]: 8.9 mPA · s

C=CC(=O)N(CCCCCC)CC(=O)OCCCC [Example 12a]
Viscosity (25 degrees C., mPA · s) [1]: 23.7 mPA · s

C=CC(=O)N(C)CC(=O)OCCCC [Example 6a]
Viscosity (25 degrees C., mPA · s) [1]: 11.9 mPA · s

C=CC(=O)N(C)CCOC(=O)C(C)C [Example 2a]
Viscosity (25 degrees C., mPA · s) [1]: 9.5 mPA · s

C=CC(=O)N(CC)CC [Comparative Example 1a, N,N-diethylacrylamide, reference compound]
Viscosity (25 degrees C., mPA · s) [1]: 2.6 mPA · s | Safeness (number of dead) [2]: 6

C=CC(=O)N(CC(=O)OC)C(C)C [Example 9a]
Viscosity (25 degrees C., mPA · s) [1]: 25.4 mPA · s

C=CC(=O)N(C)CCOC(C)=O [Example 1a]
Viscosity (25 degrees C., mPA · s) [1]: 8.4 mPA · s | Safeness (number of dead) [2]: 3

C=CC(=O)N(CC(=O)OCC)CC(=O)OCC [Comparative Example 3a, reference compound]
Viscosity (25 degrees C., mPA · s) [1]: 69.2 mPA · s

C=CC(=O)N(CC(=O)OC(C)C)C(C)C [Example 10a]
Viscosity (25 degrees C., mPA · s) [1]: 22.1 mPA · s

C=CC(=O)N(C)CC(=O)OC(C)C [Example 7a]
Viscosity (25 degrees C., mPA · s) [1]: 14.1 mPA · s

C=CC(=O)N(C)C(C)C(=O)OCC (stereo not shown) [Example 14a]
Viscosity (25 degrees C., mPA · s) [1]: 6.9 mPA · s

C=CC(=O)N(CCC)CC(=O)OCC [Example 8a]
Viscosity (25 degrees C., mPA · s) [1]: 20.4 mPA · s

C=CC(=O)N(C)CC(=O)OC [Example 4a]
Viscosity (25 degrees C., mPA · s) [1]: 12.3 mPA · s | Safeness (number of dead) [2]: 0

C=CC(=O)N(C)C(C)C(=O)OC(C)C (stereo not shown) [Example 15a]
Viscosity (25 degrees C., mPA · s) [1]: 6.8 mPA · s

C=CC(=O)N(CCOC(C)=O)C(C)(C)C [Example 3a]
Viscosity (25 degrees C., mPA · s) [1]: 16.4 mPA · s

C=CC(=O)N(CCCCCC)CC(=O)OC [Example 11a]
Viscosity (25 degrees C., mPA · s) [1]: 29.9 mPA · s

C=CC(=O)N(C)CCOC [Comparative Example 2a, reference compound]
Viscosity (25 degrees C., mPA · s) [1]: 2.4 mPA · s | Safeness (number of dead) [2]: 6

Reference: patent publication US10781325B2, “Curable composition, curable ink, accommodating container, image forming device, image forming method, cured matter, and acrylamide compound” (Ricoh Company, Ltd., priority 2016, dated 2020)
